Measured values reported in paper PMC7357169, “Blinded, Multicenter Evaluation of Drug-induced Changes in Contractility Using Human-induced Pluripotent Stem Cell-derived Cardiomyocytes” (Toxicological Sciences, 2020).
Where two headings read alike, the source gives them in different places.

How the values were obtained:
[1] = cited from earlier work; for FTPC: free therapeutic plasma concentration, Refs of Supplementary Table 1; for FPTC (free plasma therapeutic concentration): ref Supplementary Table 1
heart = system: heart; set-up: method as in Refs column of Supplementary Table 1; details: Refs of Supplementary Table 1; cited from earlier work
cardiac contractility = details: cited from earlier work; for Expected effect on contractility in isolated cardiomyocytes/heart muscles / EC50 / IC50: Refs of Supplementary Table 1, isolated cardiomyocytes/heart muscles; for EC50: read-out: Expected effect on contractility in isolated cardiomyocytes/heart muscles, EC50; for IC50: negative inotropy, read-out: Expected effect on contractility in isolated cardiomyocytes/heart muscles, IC50
hiPSC-CM EHTs = test: EHT contractility with beat rate slowed by 300 nM ivabradine and electrical pacing 0.5-2.0 Hz; assay type: cell-based, human; details: EHTs with 300 nM ivabradine, paced; only at 0.5 and 0.7 Hz, sometimes at 1 Hz, never at 1.5 or 2 Hz; high concentration bolus
Protocol: We extended these studies to the 3D EHT platform, this time slowing spontaneous beating to < 0.5 Hz with 300 nM ivabradine, a pharmacological blocker of the “funny” If current ([Bois et al., 1996]). […] Whereas force-frequency relationships was negative above 1.5 Hz, it was positive between 0.5 and 1.5 Hz, evidenced by a 147% increase in force generation concurrent with significant shortening of CT and RT (Supplementary Figure 6). We therefore re-evaluated 6 of the PIs in the presence of 300 nM ivabradine with electrical pacing at 0.5, 0.7, 1.0, 1.5, and 2.0 Hz. These also included epinephrine, levosimendan, and pimobendan, which had been incorrectly predicted by EHT:R-PAT and/or EHT:ERC platform-cell combinations. […] Thus, in both 2D and 3D configurations, lower beating frequencies led to increased predictivity for PIs.
Figure 5. Slowed beat rate increases the predictivity of positive inotropes (PIs) in 3D engineered heart tissues (EHTs). Contraction analysis was carried out using EHTs with 6 of the PIs from the drug test set: epinephrine (Epi), forskolin (For), levosimendan (Lev), pimobendan (Pim), dobutamine (Dob), and milrinone (Mil) which had been predicted with variable accuracy (Figure 4A, web tool). […] Scatter plots show percentage changes relative to baseline at respective frequency. Averaged peaks for force are shown for baseline (BL, black peaks) versus after treatment in EHTs paced at 0.5 Hz (blue peaks) or 2.0 Hz (red peaks). Dunnett’s stats versus baseline at respective frequency: *p < .05; **p < .01; ***p < .001; ****p < .0001.
Supplementary Figure 6. Positive force frequency relationship in EHTs paced between 0.5 and 1.5 Hz. Spontaneous beat rate of EHTs was reduced by 3 hour pre-treatment with 300 nM ivabradine, an If current inhibitor. […] CA increased from 0.5 to 1.5 Hz but plateaued and declined at higher frequencies. These changes were reflected in the CT and RT data. Dunnett's stats vs vehicle control: *, P<0.05; **, P<0.01; ***, P<0.001; ****, P<0.0001.

hiPSC-CMs = test: Training set contractility in hiPSC-CMs on TTM, CellOPTIQ and EHT platforms; assay type: cell-based, human; details: for inotropy (CA) response: trend or significant response, Supplementary Figure 3
Protocol: The training set of 8 drugs was used to test and refine protocols. […] For each parameter, the percentage change in drug-treated samples relative to their respective vehicle control was calculated using the formula ([drug/drug baseline]/[vehicle/vehicle baseline])*100–100. […] These studies allowed unification of SOPs, although physical and technical constraints between the platforms meant that some unavoidable differences remained (Supplementary Table 2).
Supplementary Figure 3: Training sets to unify drug testing procedures. […] The percentage change in drug treated samples is relative to their respective vehicle control. Unpaired T-test. * p<0.05; ** p<0.01; *** p<0.001; **** p<0.0001.

[2] = heart muscle, at 500 µM, ref (Kirby et al. 1992), (Baudet et al. 1993)

SMILES | FTPC [1] [µM] | FPTC (free plasma therapeutic concentration) [1] [µM] | Expected cardiac effects in vivo (heart) | Expected effect on contractility in isolated cardiomyocytes/heart muscles (cardiac contractility) | other results
CC(=O)Nc1ccc(O)cc1 [Paracetamol] | 50 | 50 | None | None | 
CNC[C@H](O)c1ccc(O)c(O)c1 [Epinephrine] | 0.0002 to 0.050 | 0.0002 to 0.05 | PI, PC |  | EC50 (cardiac contractility): 100 nM; CA response (hiPSC-CM EHTs): increased contraction amplitude
CN(C)CCCC1(c2ccc(F)cc2)OCc2cc(C#N)ccc21 (stereo not drawn) [Citalopram] | 0.05 | 0.05 | None (at therapeutic doses), higher risk of TdP | NI at 30 µM | NI (cardiac contractility; at 30 µM, in hEHT, ref (Witchel et al. 2002), (Mannhardt et al. 2017), (Rao 2007)): -57%; NI (cardiac contractility; at 30 µM, in human atria, ref (Witchel et al. 2002), (Mannhardt et al. 2017), (Rao 2007)): -38%
CN(C)C/C=C(/c1ccc(Br)cc1)c1cccnc1 [Zimelidine] |  |  | None (at ther. doses), QT and QRS widening at high doses |  | 
Clc1cccc(Cl)c1N=C1NCCN1 [Clonidine] | 0.002 to 0.004 | 0.002 to 0.004 | NI, NC | None | 
COc1ccc(C(=O)N2CCCc3cc(C4=NNC(=O)SC4C)ccc32)cc1OC (stereo not drawn) [EMD 57033] | 16 |  |  | PI, NL | EC50 (cardiac contractility): ~5000 nM
CC(C)NCC(O)COc1ccc(CC(N)=O)cc1 (stereo not drawn) [Atenolol] |  |  | NI, NC, ND | None (in absence of agonist) until 3000 µM (in contrast to e.g. propranolol) | 
CNC(=O)c1cc(Oc2ccc(NC(=O)Nc3ccc(Cl)c(C(F)(F)F)c3)cc2)ccn1 [Sorafenib] | 0.03 | 0.03 | None or NI at high doses, delayed cardiotox | None (feline and canine CM, but cell death), NI (rat heart) | 
Cc1ccc(N(CC2=NCCN2)c2cccc(O)c2)cc1 [Phentolamine] |  |  |  |  | free plasma concentration in patients ([1]; patients, ref Wallis et al., 2015): approximately 2.5 µM; inotropic effect at concentrations above 10 µM (cardiac contractility; above 10 µM, via modulation of fast sodium and L-type calcium channels, ref Rosen et al., 1971, Sada, 1978): negative inotropy; inotropic effect at free plasma concentrations (cardiac contractility; approximately 2.5 µM in patients, ref Wallis et al., 2015): neutral inotrope; IC50 (cardiac contractility): ~20000 nM
COc1ccc(CCN(C)CCCC(C#N)(c2ccc(OC)c(OC)c2)C(C)C)cc1OC (stereo not drawn) [Verapamil] |  |  | NI (direct) partially masked by adrenergic activation (indirect), NC or none, ND (direct) |  | IC50 (cardiac contractility): 100 nM
CCCc1nn(C)c2c(=O)[nH]c(-c3cc(S(=O)(=O)N4CCN(C)CC4)ccc3OCC)nc12 [Sildenafil] |  |  | None or PI+PC (indirect) | None | 
CCC(C)n1ncn(-c2ccc(N3CCN(c4ccc(OCC5COC(Cn6cncn6)(c6ccc(Cl)cc6Cl)O5)cc4)CC3)cc2)c1=O (stereo not drawn) [Itraconazole] | 0.00086 | 0.00086 |  |  | NI (cardiac contractility; at 0.3 µM, rabbit heart, ref (Head et al. 2015), (Qu et al. 2013), (Bellmann 2007)): -30%
O=C(NCC1CCCCN1)c1cc(OCC(F)(F)F)ccc1OCC(F)(F)F (stereo not drawn) [Flecainide] |  |  |  |  | IC50 (cardiac contractility): 300 nM
CC(C)(C)NCC(O)c1cc(O)cc(O)c1 (stereo not drawn) [Terbutaline] | 1.3 | 1.3 |  |  | EC50 (cardiac contractility): 3000 nM
Cn1c(=O)c2c(ncn2C)n(C)c1=O [caffeine] |  |  |  | Small PI and PL at 100 µM, transient large PI, NL at >10 mM | 
COc1ccc(Cl)cc1C(=O)NCCc1ccc(S(=O)(=O)NC(=O)NC2CCCCC2)cc1 [Glibenclamide] | 0.02 to 0.06 | 0.02 to 0.06 | None or PI in ischemia | None; PI in ischemia or presence of KATP opener; NI in adrenalectomized dogs, NE in isolated dog heart trabeculae | 
C[C@H]1O[C@@H](O[C@H]2[C@@H](O)C[C@H](O[C@H]3[C@@H](O)C[C@H](O[C@H]4CC[C@@]5(C)[C@H](CC[C@@H]6[C@@H]5C[C@@H](O)[C@]5(C)[C@@H](C7=CC(=O)OC7)CC[C@]65O)C4)O[C@@H]3C)O[C@@H]2C)C[C@H](O)[C@@H]1O [digoxin] |  |  | PI, arrhythmias | PI+ PL (< 1 µM, slowly developing, t1/2 conc.-dependent) NI + diast. shortening (>1 µM) | RT response (hiPSC-CMs; 2D configuration): tended to increase RT; inotropy (CA) response (hiPSC-CMs): positive inotropy
COC(=O)C1=C(C)NC(C)=C([N+](=O)[O-])C1c1ccccc1C(F)(F)F (stereo not drawn) [Bay K 8644] |  |  | PI (indirect NC because of RR increase) | PI, NL | 
C/C=C(/C)C(=O)O[C@H]1C(C)=C2[C@H]([C@@H]1OC(=O)CCCCCCC)[C@@](C)(OC(C)=O)C[C@H](OC(=O)CCC)[C@@]1(O)[C@H]2OC(=O)[C@@]1(C)O [thapsigargin] |  |  |  |  | NI (cardiac contractility; [2]): ~50%; NL (cardiac contractility; [2]): ~20%; NI (cardiac contractility; isolated myocytes, at 0.1 µM, ref (Kirby et al. 1992), (Baudet et al. 1993)): ~90%
C[C@H](CS)C(=O)N1CCC[C@H]1C(=O)O [Captopril] | 1 to 2 | 1 to 2 | None | None | 
COC(=O)C1=C(C)NC(C)=C(C(=O)OC)C1c1ccccc1[N+](=O)[O-] [nifedipine] |  |  | Small NI (direct) overridden by adrenergic activation, PC (indirect) |  | IC50 (cardiac contractility): 100 nM; inotropy (CA) response (hiPSC-CMs): negative inotropy
CC(=O)Oc1ccccc1C(=O)O [Acetylsalicylic acid] | 0.3 to 2 | 0.3 to 2 | None | None | 
COc1ccc(-c2nc3ccc(C4=NNC(=O)CC4C)cc3[nH]2)cc1 (stereo not drawn) [Pimobendan] | 0.005 to 0.01 | 0.005 to 0.01 | PI, small PC |  | EC50 (cardiac contractility): 34000 nM; CA response (hiPSC-CM EHTs): increased contraction amplitude
CC(C)NCC(O)c1ccc(O)c(O)c1 (stereo not drawn) [isoprenaline] | 0.0095 |  | PI, PC |  | EC50 (cardiac contractility): 10 nM; CT and RT response (hiPSC-CMs; 3D EHTs): decreased of both CT and RT; inotropy (CA) response (hiPSC-CMs): positive inotropy
CC(C)[C@@]1(O)[C@@H](OC(=O)c2ccc[nH]2)[C@@]2(O)[C@@]3(C)C[C@]4(O)O[C@@]5([C@H](O)[C@@H](C)CC[C@]35O)[C@@]2(O)[C@@]14C [ryanodine] |  |  |  | NI, NCl, species dependent biphasic | IC50 (cardiac contractility): ~10 nM
